Test results reported in ChEMBL document CHEMBL5532639, “Heterocyclic pyrimidine derivatives as promising antibacterial agents” (Eur J Med Chem, 2023).
Converted amounts (≈) assume the structure as drawn.

Assays:
Format in all cases: functional
[1] = test system: Escherichia coli; assay: Antibacterial activity against Escherichia coli assessed as inhibition of bacterial growth incubated for 4 to 20 hrs by resazurin based microplate reader analysis; settings: time 4-20 hrs
[2] = test system: Staphylococcus aureus; assay: Antibacterial activity against Staphylococcus aureus assessed as inhibition of bacterial growth incubated for 4 to 20 hrs by resazurin based microplate reader analysis; settings: time 4-20 hrs
[3] = test system: Pseudomonas aeruginosa; assay: Antibacterial activity against Pseudomonas aeruginosa assessed as inhibition of bacterial growth incubated for 4 to 20 hrs by resazurin based microplate reader analysis; settings: time 4-20 hrs
[4] = test system: Bacillus subtilis; assay: Antibacterial activity against Bacillus subtilis assessed as inhibition of bacterial growth incubated for 4 to 20 hrs by resazurin based microplate reader analysis; settings: time 4-20 hrs
[5] = test system: Staphylococcus epidermidis; assay: Antibacterial activity against Staphylococcus epidermidis assessed as reduction in bacterial growth measured after 24 hrs by broth microdilution method
[6] = test system: Micrococcus luteus; assay: Antibacterial activity against Micrococcus luteus assessed as reduction in microbial growth
[7] = test system: Micrococcus sp.; assay: Antibacterial activity against Micrococcus sp.
[8] = test system: Acinetobacter sp.; assay: Antibacterial activity against Acinetobacter sp.
[9] = test system: Staphylococcus epidermidis; assay: Antibacterial activity against Staphylococcus epidermidis assessed as reduction in microbial growth after 24 hrs by CLSI based microdilution method
[10] = test system: Staphylococcus haemolyticus; assay: Antibacterial activity against Staphylococcus haemolyticus clinical isolates assessed as bacterial growth inhibition measured after 16 to 24 hrs by broth microdilution assay; settings: time 16-24 hrs
[11] = test system: Micrococcus luteus; assay: Antibacterial activity against Micrococcus luteus assessed as bacterial growth inhibition by paper disc diffusion assay
[12] = test system: Staphylococcus hominis; assay: Antibacterial activity against Staphylococcus hominis
[13] = test system: Staphylococcus xylosus; assay: Antibacterial activity against Staphylococcus xylosus assessed as reduction in bacterial growth
[14] = test system: Corynebacterium sp.; assay: Antibacterial activity against Corynebacterium sp.
[15] = test system: Staphylococcus cohnii; assay: Antibacterial activity against Staphylococcus cohnii
[16] = test system: Moraxella catarrhalis; assay: Antibacterial activity against Moraxella catarrhalis assessed as reduction in bacterial growth by broth microdilution method
[17] = test system: Corynebacterium glutamicum; assay: Antibacterial activity against Corynebacterium glutamicum
[18] = test system: Alcaligenes faecalis; assay: Antibacterial activity against Alcaligenes faecalis
[19] = test system: Arcanobacterium haemolyticum; assay: Antibacterial activity against Arcanobacterium haemolyticum
[20] = test system: Corynebacterium glutamicum; assay: Antibacterial activity against Corynebacterium glutamicum ATCC 13032 cultured in MHB medium assessed as no bacterial growth incubated at 20 degC for 24 hrs by microdilution susceptibility test
[21] = test system: Corynebacterium xerosis; assay: Antibacterial activity against Corynebacterium xerosis
[22] = test system: Pseudomonas aeruginosa; assay: Antibacterial activity against Pseudomonas aeruginosa assessed as reduction in bacterial growth incubated for 24 hrs by broth microdilution method
[23] = test system: Klebsiella pneumoniae; assay: Antibacterial activity against Klebsiella pneumoniae assessed as reduction in bacterial growth incubated for 16 to 20 hrs by Mueller-Hinton broth based two-fold serial dilution method; settings: time 16-20 hrs
[24] = test system: Streptococcus pyogenes; assay: Antibacterial activity against Streptococcus pyogenes assessed as reduction in microbial growth incubated for 24 hrs by broth micro-dilution method
[25] = test system: Escherichia coli; assay: Antibacterial activity against Escherichia coli assessed as reduction in bacterial growth incubated for 16 to 20 hrs by Mueller-Hinton broth based two-fold serial dilution method; settings: time 16-20 hrs
[26] = test system: Staphylococcus aureus; assay: Antibacterial activity against Staphylococcus aureus assessed as reduction in bacterial growth incubated for 16 to 20 hrs by Mueller-Hinton broth based two-fold serial dilution method; settings: time 16-20 hrs

| Compound | MIC [1] | MIC [2] | MIC [3] | MIC [4] | MIC [5] | MIC [6] | MIC [7] | MIC [8] | MIC [9] | MIC [10] | MIC [11] | MIC [12] | MIC [13] | MIC [14] | MIC [15] | MIC [16] | MIC [17] | MIC [18] | MIC [19] | MIC [20] | other results |
| --- | --- | --- | --- | --- | --- | --- | --- | --- | --- | --- | --- | --- | --- | --- | --- | --- | --- | --- | --- | --- | --- |
| Cc1nc(NC(=O)c2cc(C(F)(F)F)cc(C(F)(F)F)c2)c2c(C(F)(F)F)cc(-c3ccccc3)nc2n1 | 50 µg/mL (≈ 91.8 µM) | 12.5 µg/mL (≈ 23 µM) | 50 µg/mL (≈ 91.8 µM) | 12.5 µg/mL (≈ 23 µM) |  |  |  |  |  |  |  |  |  |  |  |  |  |  |  |  |  |
| Cc1nc(NC(=O)c2ccncc2)c2c(C(F)(F)F)cc(-c3ccccc3)nc2n1 | 50 µg/mL (≈ 122 µM) | 12.5 µg/mL (≈ 30.5 µM) | 50 µg/mL (≈ 122 µM) | 12.5 µg/mL (≈ 30.5 µM) |  |  |  |  |  |  |  |  |  |  |  |  |  |  |  |  |  |
| Clc1ccc(C(Cc2ccccc2)c2c(Cl)nc(N3CCNCC3)nc2Cl)cc1 (centres undefined) |  |  |  |  | 100 µg/mL (≈ 223 µM) | 100 µg/mL | 100 µg/mL (≈ 223 µM) | 50 µg/mL (≈ 112 µM) | 100 µg/mL | 100 µg/mL (≈ 223 µM) | 100 µg/mL (≈ 223 µM) | 100 µg/mL (≈ 223 µM) | 100 µg/mL (≈ 223 µM) | 100 µg/mL (≈ 223 µM) | 100 µg/mL (≈ 223 µM) | 100 µg/mL (≈ 223 µM) | 100 µg/mL (≈ 223 µM) | > 500 µg/mL | 10 µg/mL (≈ 22.3 µM) | 50 µg/mL (≈ 112 µM) | MIC [21]: 30 µg/mL (≈ 67 µM) |
| Nc1c(-c2nc3ccccc3s2)c(-c2ccc(Cl)cc2)nc2nc(N/N=C/c3cccc(F)c3)[nH]c(=O)c12 |  |  |  |  |  |  |  |  |  |  |  |  |  |  |  |  |  |  |  |  | MIC [22]: 25 µg/mL (≈ 46.1 µM); MIC [23]: 25 µg/mL (≈ 46.1 µM); MIC [24]: 12.5 µg/mL; MIC [25]: 25 µg/mL (≈ 46.1 µM); MIC [26]: 12.5 µg/mL (≈ 23.1 µM) |
| Nc1c(-c2nc3ccccc3s2)c(-c2ccc(Cl)cc2)nc2nc(N/N=C/c3cccc([N+](=O)[O-])c3)[nH]c(=O)c12 |  |  |  |  |  |  |  |  |  |  |  |  |  |  |  |  |  |  |  |  | MIC [22]: 12.5 µg/mL (≈ 22 µM); MIC [23]: 12.5 µg/mL (≈ 22 µM); MIC [24]: 12.5 µg/mL; MIC [25]: 12.5 µg/mL (≈ 22 µM); MIC [26]: 12.5 µg/mL (≈ 22 µM) |
| CC1(C)S[C@@H]2[C@H](NC(=O)[C@H](N)c3ccc(O)cc3)C(=O)N2[C@H]1C(=O)O [AMOXICILLIN] | 0.5 µg/mL (≈ 1.37 µM) | 0.39 µg/mL (≈ 1.07 µM) | 1 µg/mL (≈ 2.74 µM) | 0.39 µg/mL (≈ 1.07 µM) |  |  |  |  |  |  |  |  |  |  |  |  |  |  |  |  |  |
| Clc1ccc(C(Cc2cccc(Cl)c2)c2c(Cl)nc(N3CCNCC3)nc2Cl)cc1 (centres undefined) |  |  |  |  | 75 µg/mL (≈ 156 µM) | 100 µg/mL | 75 µg/mL (≈ 156 µM) | 30 µg/mL (≈ 62.2 µM) | 75 µg/mL | 50 µg/mL (≈ 104 µM) | 75 µg/mL (≈ 156 µM) | 75 µg/mL (≈ 156 µM) | 100 µg/mL (≈ 207 µM) | 75 µg/mL (≈ 156 µM) | 75 µg/mL (≈ 156 µM) | 50 µg/mL (≈ 104 µM) | 50 µg/mL (≈ 104 µM) | > 500 µg/mL | 10 µg/mL (≈ 20.7 µM) | 50 µg/mL (≈ 104 µM) | MIC [21]: 30 µg/mL (≈ 62.2 µM) |
| Nc1c(-c2nc3ccccc3s2)c(-c2ccc(Cl)cc2)nc2nc(N/N=C/c3cccc(Cl)c3)[nH]c(=O)c12 |  |  |  |  |  |  |  |  |  |  |  |  |  |  |  |  |  |  |  |  | MIC [22]: 50 µg/mL (≈ 89.5 µM); MIC [23]: 50 µg/mL (≈ 89.5 µM); MIC [24]: 25 µg/mL; MIC [25]: 25 µg/mL (≈ 44.8 µM); MIC [26]: 25 µg/mL (≈ 44.8 µM) |
| Nc1nc(Cl)c(C(Cc2ccccc2)c2ccc(Cl)cc2)c(Cl)n1 (centres undefined) |  |  |  |  | 100 µg/mL (≈ 264 µM) | 100 µg/mL | 100 µg/mL (≈ 264 µM) | > 500 µg/mL | 100 µg/mL | 100 µg/mL (≈ 264 µM) | 100 µg/mL (≈ 264 µM) | 100 µg/mL (≈ 264 µM) | 100 µg/mL (≈ 264 µM) | 100 µg/mL (≈ 264 µM) | 100 µg/mL (≈ 264 µM) | 500 µg/mL (≈ 1320 µM) | 100 µg/mL (≈ 264 µM) | > 500 µg/mL | 10 µg/mL (≈ 26.4 µM) | 100 µg/mL (≈ 264 µM) | MIC [21]: 30 µg/mL (≈ 79.2 µM) |
| Clc1ccc(C(Cc2ccccc2)c2c(Cl)nc(Cl)nc2Cl)cc1 (centres undefined) |  |  |  |  | > 100 µg/mL | 20 µg/mL | 30 µg/mL (≈ 75.4 µM) | > 1000 µg/mL | 100 µg/mL | 100 µg/mL (≈ 251 µM) | 20 µg/mL (≈ 50.2 µM) | 100 µg/mL (≈ 251 µM) | 20 µg/mL (≈ 50.2 µM) | 100 µg/mL (≈ 251 µM) | 100 µg/mL (≈ 251 µM) | 300 µg/mL (≈ 754 µM) | 30 µg/mL (≈ 75.4 µM) | 1000 µg/mL (≈ 2510 µM) | 10 µg/mL (≈ 25.1 µM) | 30 µg/mL (≈ 75.4 µM) | MIC [21]: 20 µg/mL (≈ 50.2 µM) |
| CCCCCCCc1ccc(C(=O)Nc2nc(C)nc3nc(-c4ccccc4)cc(C(F)(F)F)c23)cc1 | 50 µg/mL (≈ 98.7 µM) | 12.5 µg/mL (≈ 24.7 µM) | 50 µg/mL (≈ 98.7 µM) | 12.5 µg/mL (≈ 24.7 µM) |  |  |  |  |  |  |  |  |  |  |  |  |  |  |  |  |  |
| Nc1cccc(/C=N/Nc2nc3nc(-c4ccc(Cl)cc4)c(-c4nc5ccccc5s4)c(N)c3c(=O)[nH]2)c1 |  |  |  |  |  |  |  |  |  |  |  |  |  |  |  |  |  |  |  |  | MIC [22]: 25 µg/mL (≈ 46.4 µM); MIC [23]: 12.5 µg/mL (≈ 23.2 µM); MIC [24]: 12.5 µg/mL; MIC [25]: 12.5 µg/mL (≈ 23.2 µM); MIC [26]: 25 µg/mL (≈ 46.4 µM) |
